# Patent US20020137929A1, “1 - (3-heterocyclylphenyl) isothiourea, -isourea, -guanidine and -amidine herbicidal agents” (Intellectual Property Department, BASF Aktiengesellschaft, priority 1998, published 2002)
# What was measured:
# [1] = test system: ABUTH (Velvetleaf); assay: Postemergence herbicidal evaluation; format: in vivo, Abutilon theophrasti; settings: postemergence
# In short: (§1)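 ~2-wk seedlings; postemergence spray, 40 psi; vehicle 1:1 acetone:water + 0.5% Tween 20; rate ≈0.0156–0.500 kg/ha; greenhouse hold; scored 4–5 wk after treatment, 0–9 scale vs control; repeat tests averaged.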
# [2] = test system: TRZAWR (Wheat, Winter, cv Riband); assay: Postemergence herbicidal evaluation; format: in vivo, Triticum aestivum; settings: postemergence
# In short: as §1
# [3] = test system: AMBEL (Ragweed, Common); assay: Postemergence herbicidal evaluation; format: in vivo, Ambrosia artemisifolia; settings: postemergence
# In short: as §1
# [4] = test system: SETVI (Foxtail, Green); assay: Postemergence herbicidal evaluation; format: in vivo, Setaria viridis; settings: postemergence
# In short: as §1
# [5] = test system: GLXMAW (Soybean, Williams); assay: Postemergence herbicidal evaluation; format: in vivo, Glycine max, (L.) Merr. cv Williams; settings: postemergence
# In short: as §1
# [6] = test system: ECHCG (Barnyardgrass); assay: Postemergence herbicidal evaluation; format: in vivo, Echinochloa crus-galli; settings: postemergence
# In short: as §1
# [7] = test system: ECHCG (Barnyardgrass); assay: Preemergence herbicidal evaluation; format: in vivo, Echinochloa crus-galli; settings: rated 4-5 weeks after treatment
# In short: (§2)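 Preemergence soil application of compound, sprayed in aqueous acetone at rates equivalent to about 0.0156 to 0.500 kg per hectare onto freshly sown cups. Plant response was judged by eye on a 0-9 scale four to five weeks later.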
# [8] = test system: IPOHE (Morningglory, Ivyleaf); assay: Preemergence herbicidal evaluation; format: in vivo, Ipomoea hederacea; settings: rated 4-5 weeks after treatment
# In short: as §2
# [9] = test system: IPOHE (Morningglory, Ivyleaf); assay: Postemergence herbicidal evaluation; format: in vivo, Ipomoea hederacea; settings: postemergence
# In short: as §1
# [10] = test system: GALAP (Galium); assay: Preemergence herbicidal evaluation; format: in vivo, Galium aparine; settings: rated 4-5 weeks after treatment
# In short: as §2
# [11] = test system: ZEAMX (Corn, Field); assay: Preemergence herbicidal evaluation; format: in vivo, Zea mays; settings: rated 4-5 weeks after treatment
# In short: as §2
# [12] = test system: CHEAL (Lambsquarters, Common); assay: Preemergence herbicidal evaluation; format: in vivo, Chenopodium album; settings: rated 4-5 weeks after treatment
# In short: as §2
# [13] = test system: CASOB (Sicklepod); assay: Preemergence herbicidal evaluation; format: in vivo, Cassia obtusifolia; settings: rated 4-5 weeks after treatment
# In short: as §2
# [14] = rate 0.0156 kg/ha, rating scale 0-9
# [15] = rate 0.0313 kg/ha, rating scale 0-9
# [16] = rate 0.0625 kg/ha, rating scale 0-9
# [17] = rate 0.1250 kg/ha, rating scale 0-9
# [18] = rate 0.2500 kg/ha, rating scale 0-9
smiles,measurement,setting,value
"CCOC(=O)CN1C(=O)C(C(=O)OCC)SC1=Nc1cc(-n2c(=O)cc(C(F)(F)F)n(C)c2=O)c(F)cc1Cl (centres unmarked) [Compound 127, 5-Carboxy-2-{{2-chloro-5-[3,6-dihydro-3-methyl-2,6-dioxo-4-(trifluoromethyl)-1(2H)-pyrimidinyl]-4-fluorophenyl}imino}-4-oxo-3-thiazolidineacetic acid, diethyl ester]",herbicidal rating ABUTH,[1]; rate 0.0156 kg/ha,9.0
same,herbicidal rating ABUTH,[1]; rate 0.0313 kg/ha,9.0
same,herbicidal rating ABUTH,[1]; rate 0.0625 kg/ha,9.0
same,herbicidal rating ABUTH,[1]; rate 0.1250 kg/ha,9.0
same,herbicidal rating TRZAWR,[2]; rate 0.0156 kg/ha,2.5
same,herbicidal rating TRZAWR,[2]; rate 0.0313 kg/ha,2.5
same,herbicidal rating TRZAWR,[2]; rate 0.0625 kg/ha,3.5
same,herbicidal rating TRZAWR,[2]; rate 0.1250 kg/ha,6.0
same,herbicidal rating AMBEL,[3]; rate 0.0156 kg/ha,9.0
same,herbicidal rating AMBEL,[3]; rate 0.0313 kg/ha,9.0
same,herbicidal rating AMBEL,[3]; rate 0.0625 kg/ha,9.0
same,herbicidal rating AMBEL,[3]; rate 0.1250 kg/ha,9.0
same,herbicidal rating SETVI,[4]; rate 0.0156 kg/ha,0.0
same,herbicidal rating SETVI,[4]; rate 0.0313 kg/ha,1.0
same,herbicidal rating SETVI,[4]; rate 0.0625 kg/ha,7.0
same,herbicidal rating SETVI,[4]; rate 0.1250 kg/ha,9.0
same,herbicidal rating GLXMAW,[5]; rate 0.0156 kg/ha,5.0
same,herbicidal rating GLXMAW,[5]; rate 0.0313 kg/ha,5.5
same,herbicidal rating GLXMAW,[5]; rate 0.0625 kg/ha,7.5
same,herbicidal rating GLXMAW,[5]; rate 0.1250 kg/ha,9.0
same,herbicidal rating ECHCG,[6]; rate 0.0156 kg/ha,0.0
same,herbicidal rating ECHCG,[6]; rate 0.0313 kg/ha,0.0
same,herbicidal rating ECHCG,[6]; rate 0.0625 kg/ha,1.0
same,herbicidal rating ECHCG,[6]; rate 0.1250 kg/ha,3.0
same,Preemergence herbicidal rating ECHCG,[7]; rate 0.0313 kg/ha,0.0
same,Preemergence herbicidal rating ECHCG,[7]; rate 0.0625 kg/ha,0.0
same,Preemergence herbicidal rating ECHCG,[7]; rate 0.1250 kg/ha,0.0
same,Preemergence herbicidal rating ECHCG,[7]; rate 0.2500 kg/ha,0.0
same,Preemergence herbicidal rating ECHCG,[7]; rate 0.5000 kg/ha,0.0
same,Preemergence herbicidal rating IPOHE,[8]; rate 0.0313 kg/ha,0.0
same,Preemergence herbicidal rating IPOHE,[8]; rate 0.0625 kg/ha,0.0
same,Preemergence herbicidal rating IPOHE,[8]; rate 0.1250 kg/ha,1.0
same,Preemergence herbicidal rating IPOHE,[8]; rate 0.2500 kg/ha,9.0
same,Preemergence herbicidal rating IPOHE,[8]; rate 0.5000 kg/ha,9.0
same,herbicidal rating IPOHE,[9]; rate 0.0156 kg/ha,9.0
same,herbicidal rating IPOHE,[9]; rate 0.0313 kg/ha,9.0
same,herbicidal rating IPOHE,[9]; rate 0.0625 kg/ha,9.0
same,herbicidal rating IPOHE,[9]; rate 0.1250 kg/ha,9.0
same,Preemergence herbicidal rating GALAP,[10]; rate 0.0313 kg/ha,0.0
same,Preemergence herbicidal rating GALAP,[10]; rate 0.0625 kg/ha,3.0
same,Preemergence herbicidal rating GALAP,[10]; rate 0.1250 kg/ha,3.0
same,Preemergence herbicidal rating GALAP,[10]; rate 0.2500 kg/ha,7.0
same,Preemergence herbicidal rating GALAP,[10]; rate 0.5000 kg/ha,9.0
same,Preemergence herbicidal rating ZEAMX,[11]; rate 0.0313 kg/ha,0.0
same,Preemergence herbicidal rating ZEAMX,[11]; rate 0.0625 kg/ha,0.0
same,Preemergence herbicidal rating ZEAMX,[11]; rate 0.1250 kg/ha,0.0
same,Preemergence herbicidal rating ZEAMX,[11]; rate 0.2500 kg/ha,4.0
same,Preemergence herbicidal rating ZEAMX,[11]; rate 0.5000 kg/ha,8.0
same,Preemergence herbicidal rating CHEAL,[12]; rate 0.0313 kg/ha,9.0
same,Preemergence herbicidal rating CHEAL,[12]; rate 0.0625 kg/ha,9.0
same,Preemergence herbicidal rating CHEAL,[12]; rate 0.1250 kg/ha,9.0
same,Preemergence herbicidal rating CHEAL,[12]; rate 0.2500 kg/ha,9.0
same,Preemergence herbicidal rating CHEAL,[12]; rate 0.5000 kg/ha,9.0
same,Preemergence herbicidal rating CASOB,[13]; rate 0.0313 kg/ha,0.0
same,Preemergence herbicidal rating CASOB,[13]; rate 0.0625 kg/ha,0.0
same,Preemergence herbicidal rating CASOB,[13]; rate 0.1250 kg/ha,0.0
same,Preemergence herbicidal rating CASOB,[13]; rate 0.2500 kg/ha,2.0
same,Preemergence herbicidal rating CASOB,[13]; rate 0.5000 kg/ha,6.0
"Cc1cccc(CN2C(=O)CSC2=Nc2cc(-n3c(=O)cc(C(F)(F)F)n(C)c3=O)c(F)cc2Cl)c1 [Compound 130, 3-{4-Chloro-2-fluoro-5-{[3-(m-methylbenzyl)-4-oxo-2-thiazolidinylidene]amino}phenyl}-1-methyl-6-(trifluoromethyl)-2,4 (1H, 3H)-pyrimidinedione]",herbicidal rating ABUTH,[1]; rate 0.0156 kg/ha,9.0
same,herbicidal rating ABUTH,[1]; rate 0.0313 kg/ha,9.0
same,herbicidal rating ABUTH,[1]; rate 0.0625 kg/ha,9.0
same,herbicidal rating TRZAWR,[2]; rate 0.0156 kg/ha,3.5
same,herbicidal rating TRZAWR,[2]; rate 0.0313 kg/ha,3.5
same,herbicidal rating TRZAWR,[2]; rate 0.0625 kg/ha,4.0
same,herbicidal rating AMBEL,[3]; rate 0.0156 kg/ha,9.0
same,herbicidal rating AMBEL,[3]; rate 0.0313 kg/ha,9.0
same,herbicidal rating AMBEL,[3]; rate 0.0625 kg/ha,9.0
same,herbicidal rating SETVI,[4]; rate 0.0156 kg/ha,4.0
same,herbicidal rating SETVI,[4]; rate 0.0313 kg/ha,6.0
same,herbicidal rating SETVI,[4]; rate 0.0625 kg/ha,7.0
same,herbicidal rating GLXMAW,[5]; rate 0.0156 kg/ha,5.5
same,herbicidal rating GLXMAW,[5]; rate 0.0313 kg/ha,7.0
same,herbicidal rating GLXMAW,[5]; rate 0.0625 kg/ha,8.0
same,herbicidal rating ECHCG,[6]; rate 0.0156 kg/ha,2.0
same,herbicidal rating ECHCG,[6]; rate 0.0313 kg/ha,2.0
same,herbicidal rating ECHCG,[6]; rate 0.0625 kg/ha,3.0
same,Preemergence herbicidal rating ECHCG,[7]; [14],0.0
same,Preemergence herbicidal rating ECHCG,[7]; [15],0.0
same,Preemergence herbicidal rating ECHCG,[7]; [16],1.0
same,Preemergence herbicidal rating ECHCG,[7]; [17],4.0
same,Preemergence herbicidal rating ECHCG,[7]; [18],7.0
same,Preemergence herbicidal rating IPOHE,[8]; [14],0.0
same,Preemergence herbicidal rating IPOHE,[8]; [15],0.0
same,Preemergence herbicidal rating IPOHE,[8]; [16],2.0
same,Preemergence herbicidal rating IPOHE,[8]; [17],9.0
same,Preemergence herbicidal rating IPOHE,[8]; [18],7.0
same,herbicidal rating IPOHE,[9]; rate 0.0156 kg/ha,9.0
same,herbicidal rating IPOHE,[9]; rate 0.0313 kg/ha,9.0
same,herbicidal rating IPOHE,[9]; rate 0.0625 kg/ha,9.0
same,Preemergence herbicidal rating GALAP,[10]; [14],0.0
same,Preemergence herbicidal rating GALAP,[10]; [16],0.0
same,Preemergence herbicidal rating GALAP,[10]; [17],2.0
same,Preemergence herbicidal rating GALAP,[10]; [18],2.0
same,Preemergence herbicidal rating ZEAMX,[11]; [14],0.0
same,Preemergence herbicidal rating ZEAMX,[11]; [15],1.0
same,Preemergence herbicidal rating ZEAMX,[11]; [16],4.0
same,Preemergence herbicidal rating ZEAMX,[11]; [17],7.0
same,Preemergence herbicidal rating ZEAMX,[11]; [18],9.0
same,Preemergence herbicidal rating CHEAL,[12]; [14],9.0
same,Preemergence herbicidal rating CHEAL,[12]; [15],9.0
same,Preemergence herbicidal rating CHEAL,[12]; [16],9.0
same,Preemergence herbicidal rating CHEAL,[12]; [17],9.0
same,Preemergence herbicidal rating CHEAL,[12]; [18],9.0
same,Preemergence herbicidal rating CASOB,[13]; [14],0.0
same,Preemergence herbicidal rating CASOB,[13]; [15],1.0
same,Preemergence herbicidal rating CASOB,[13]; [16],2.0
same,Preemergence herbicidal rating CASOB,[13]; [18],3.0
